# Source: US5753681A, “Treatment and prophylaxis of pancreatitis” (Sankyo Company, Limited, priority 1996, dated 1998)
# Like-named read-outs stand apart in the source and are kept apart here.
# Columns and labels:
# [1] = assay type: in vivo, Wistar-Imamichi rats; details: 170 mg/kg/day
# Text: (§1) Since the decrease in the amount of pancreatic parenchyma resulting from chronic pancreatitis causes loss of pancreatic weight, any suppression of the decrease in the amount of pancreatic parenchyma can be used as an index for evaluating any improvement in the pancreatitis. Furthermore, since degeneration and necrosis of the pancreatic parenchyma and its replacement by connective tissue occurs in chronic pancreatitis, the seriousness of the pancreatitis can be estimated by histopathologically measuring the area over which the pancreatic parenchyma is replaced with connective tissue (known as the "cicatrized area").
# (§2) Measurement of the weight of the pancreas may be carried out by conventional procedures after the experimental animals have been sacrificed by phlebotomy.
# The effects of pancreatitis may be simulated, as is conventional, in experimental animals, by the administration of streptozotocin [(N-methylnitroso-carbamoyl)-D-glucosamine: R. A. Bennett et al., Cancer Res., 41, 2786-2790, (1981); a product of Sigma Chemical Company], which is capable of specifically destroying the Langerhans islet B cells and which thus induces a decrease in pancreatic weight. Streptozotocin is administered intravenously to the experimental animal, and then a powdered feed admixed with a test compound is given to a group of animals which have been dosed with streptozotocin. This group is hereafter referred to as the "treated group". Meanwhile, a powdered feed only is given to another group of animals which have been dosed with streptozotocin. This group is hereafter referred to as the "control group". Normal animals (undosed) fed with the feed only are also used as a blank group against the experimental animals (dosed with streptozotocin). After the test compounds have been administered to the animals for a predetermined period, each animal is sacrificed to measure its pancreatic weight. […]
# Meanwhile, another group of rats was fed with the powdered feed F2 only. […] After a predetermined period, the rats were sacrificed and the pancreatic weight of each animal was measured.
# [2] = Increase in the pancreatic weight in a model of spontaneous chronic pancreatitis (3 months); assay type: in vivo, male WBN/Kob rats; details: treated group, 0.2% in feed, 140 mg/kg/day, three months; control 773 ± 17; **p < 0.01 vs. control
# Text: as §1, §2
# The test animals were male WBN/Kob rats, which are commonly used as models of spontaneous chronic pancreatitis and suffer pancreatic weight loss and dysfunction of the exocrine pancreatic tissue due to degeneration and necrosis of the pancreatic parenchyma and its replacement by connective tissue [Tsuchitani et al., Laboratory Animals, 19(3), 200-207, (1985)]. […] After the rats had been fed with the feeds for three months, the pancreas of each animal was totally enucleated and its weight was measured.
# [3] = Histopathology of pancreatic tissue of Example 2: total cross-sectional area and cicatrized area; assay type: in vivo, male WBN/Kob rats; details: 0.2% in feed, three months
# Text: as §1
# (§3) The measurement of the cicatrized area may also be carried out by conventional procedures. More specifically, male WBN/Kob rats are used as models of spontaneous chronic pancreatitis and are fed with a powdered feed admixed with a test compound. The pancreas of each animal is then totally enucleated. Its weight is measured and also the cicatrized area is measured relative to the total cross-sectional area of the pancreas tissue sliced by an image analyser.
# The test animals were male WBN/Kob rats, which are commonly used as models of spontaneous chronic pancreatitis and suffer pancreatic weight loss and dysfunction of the exocrine pancreatic tissue due to degeneration and necrosis of the pancreatic parenchyma and its replacement by connective tissue [Tsuchitani et al., Laboratory Animals, 19(3), 200-207, (1985)]. Each group of test animals contained 4 animals, and the animals were used for the experiment when they had reached 12 weeks old. The animals were fed with powdered feed F2 mixed with 0.2% of troglitazone for three months. This group is hereinafter referred to as "the treated group". The average dose of the compound during this period was 140 mg/kg/day. Meanwhile, another four rats (control group) were fed with the powdered feed F2 only. After the rats had been fed with the feeds for three months, the pancreas of each animal was totally enucleated and its weight was measured.
# In order to evaluate the results of Example 2 histopathologically, each pancreas used for weight measurement in Example 2 was fixed in 10% neutral formalin. It was then divided into a spleen side half and a duodenum side half, and each half was sliced at 3 mm intervals to provide cross-sectional tissue pieces. […] The total cross-sectional area of the pancreatic tissue piece on each preparation was measured using an image analyser (SPICCAII, manufactured by Olympus Optical Co., Ltd.).
# (§4) In addition, the surface area of the zone which had undergone degeneration and necrosis and in which the exocrine pancreatic tissue was replaced with connective tissue (the cicatrized area) was measured using an image analyser.
# [4] = Effect of long term treatment on pancreatic weight; assay type: in vivo, male WBN/Kob rats; details: 9.5 months; for Pancreatic weight: control 804 ± 35
# Procedure: (§5) The test animals were male WBN/Kob rats. Each group of test animals contained 6 animals, and the animals were used for the experiment when they had reached 12 weeks old. The animals were fed with powdered feed F2 mixed with 0.2% or 0.05% of troglitazone for 9.5 months. These groups are hereinafter referred to as "the 0.2% group" and "the 0.05% group", respectively. The average doses of the compound during this period were 120 mg/kg/day and 30 mg/kg/day, respectively. Meanwhile, another six rats (control group) were fed with the powdered feed F2 only. After the rats had been fed with the feeds for 9.5 months, each rat was decapitated and its blood was collected. The blood serum was separated and the plasma lipase level was measured using an autoanalyser (type 7250, manufactured by Hitachi Ltd.).
# After the blood had been collected, the pancreas of each animal was totally enucleated and weighed.
# [5] = Histopathology of pancreatic tissue of Example 6: total cross-sectional area and cicatrized area; assay type: in vivo, male WBN/Kob rats; details: 9.5 months; for Cicatrized area in the exocrine pancreatic tissue: **p < 0.01
# Procedure: as §3
# In order to evaluate the results of Example 2 histopathologically, each pancreas used for weight measurement in Example 2 was fixed in 10% neutral formalin. It was then divided into a spleen side half and a duodenum side half, and each half was sliced at 3 mm intervals to provide cross-sectional tissue pieces. All of these tissue pieces were subjected to paraffin sectioning by conventional procedures and then to hematoxylin-eosin staining and Masson's trichrome staining to prepare two tissue preparations, which were used for histopathological examination. The total cross-sectional area of the pancreatic tissue piece on each preparation was measured using an image analyser (SPICCAII, manufactured by Olympus Optical Co., Ltd.).
# as §4, §5
# In order to evaluate the results of Example 6 histopathologically, the total cross-sectional area and cicatrized area of each pancreas whose weight was measured in Example 6 was measured by the procedure described in Example 4.
# Acute toxicity = assay type: in vivo, ddY mice (male); details: single oral dose of 300 mg/kg, observed for 5 days, three mice
# Procedure: Acute toxicity was assayed by conventional procedures. […] At the end of this time, the animals were all alive. When the acute toxicities of Compounds No. 2, 3, 4 and 10 were measured in the same manner, the mice were all alive after an oral dose of 300 mg/kg or more.
smiles,measurement,setting,value
"Cc1c(C)c2c(c(C)c1O)CCC(C)(COc1ccc(CC3SC(=O)NC3=O)cc1)O2 (centres unmarked) [troglitazone, 5-[4-(6-Hydroxy-2,5,7,8-tetramethylchroman-2-ylmethoxy)benzyl]thiazolidine-2,4-dione]",Inhibition of pancreatic weight loss (in words),"[1]; 0.2% in feed, 14 days, vs. control group",significantly inhibited the pancreatic weight loss
same,Lesions such as edema in the pancreas,"[1]; rat, in vivo",no lesions such as edema
same,Pancreatic weight,"[1]; treated group, 0.2% in feed, 14 days, after streptozotocin 25 mg/kg i.v., normal 1333 ± 43, control 1253 ± 39, *p < 0.05 vs. control",1435 ± 40 mg
same,Pancreatic weight,[2],936 ± 27 mg
same,Cicatrized area in the exocrine pancreatic tissue,"[3]; duodenum side half, control 10.84 ± 0.60, *p < 0.05",6.76 ± 1.37 mm^2
same,Total cross-sectional area of pancreatic tissue piece,"[3]; duodenum side half, control 89.5 ± 6.6",132.8 ± 23.6 mm^2
same,Cicatrized area in the exocrine pancreatic tissue,"[3]; spleen side pancreatic half, control 5.95 ± 0.90, *p < 0.05",3.31 ± 0.48 mm^2
same,Total cross-sectional area of pancreatic tissue piece,"[3]; spleen side pancreatic half, control 150.5 ± 4.6, *p < 0.05",172.6 ± 5.3 mm^2
same,Pancreatic weight,"[4]; 0.05% group, 30 mg/kg/day in feed",906 ± 63 mg
same,Pancreatic weight,"[4]; 0.2% group, 120 mg/kg/day in feed, ***p < 0.001",1164 ± 52 mg
same,Pancreatic weight (in words),"[4]; both the 0.2% group and the 0.05% group, vs. control group",significant increase
same,Cicatrized area in the exocrine pancreatic tissue,"[5]; duodenum side, 0.05% group, control 2.48 ± 0.39",1.03 ± 0.16 mm^2
same,Total cross-sectional area of pancreatic tissue piece,"[5]; duodenum side, 0.05% group, control 106.1 ± 6.6",110.6 ± 7.7 mm^2
same,Cicatrized area in the exocrine pancreatic tissue,"[5]; duodenum side, 0.2% group, control 2.48 ± 0.39",0.65 ± 0.06 mm^2
same,Total cross-sectional area of pancreatic tissue piece,"[5]; duodenum side, 0.2% group, control 106.1 ± 6.6",122.3 ± 7.4 mm^2
same,Cicatrized area in the exocrine pancreatic tissue,"[5]; spleen side pancreatic half, 0.05% group, control 4.96 ± 0.82",1.68 ± 0.12 mm^2
same,Total cross-sectional area of pancreatic tissue piece,"[5]; spleen side pancreatic half, 0.05% group, control 103.0 ± 16.9",96.2 ± 8.2 mm^2
same,Cicatrized area in the exocrine pancreatic tissue,"[5]; spleen side pancreatic half, 0.2% group, control 4.96 ± 0.82",1.23 ± 0.19 mm^2
same,Total cross-sectional area of pancreatic tissue piece,"[5]; spleen side pancreatic half, 0.2% group, control 103.0 ± 16.9, *p < 0.05",141.9 ± 10.6 mm^2
same,Survival (acute toxicity),Acute toxicity,all alive
